Test results: article PMC6133161, “Thiazoles with cyclopropyl fragment as antifungal, anticonvulsant, and anti-Toxoplasma gondii agents: synthesis, toxicity evaluation, and molecular docking study” (Medicinal Chemistry Research, 2018)
Values after ≈ are worked out from the molar mass of the structure shown. Like-named read-outs stand apart in the source and are kept apart here.

Assays:
[1] = system: maximal electroshock seizures; assay: Maximal electroshock seizure (MES) test; type: in vivo, mouse; conditions: mice; for responders at 100 mg/kg: 100 mg/kg ip, read-out: X/Y number of mice protected (X) per number of mice tested (Y) (converted)
Experimental: For in vivo tests that assessed anticonvulsant properties of the test compounds 3a–3j adult male Albino Swiss (CD-1) mice weighing between 18 and 22 g were used. The animals were housed in groups of ten mice per cage at room temperature of 22 ± 2 °C, under light/dark (12:12) cycle. The animals had free access to food and tap water before the experiments. The ambient temperature of the experimental room and humidity (50 ± 10%) were kept consistent throughout all the tests. For behavioral experiments the animals were selected randomly. Each experimental group consisted of 4–8 animals/dose. The experiments were performed between 9 AM and 2 PM. Immediately after the in vivo assay the animals were euthanized by cervical dislocation. All procedures were approved by the Local Ethics Committee of the Jagiellonian University in Krakow (34/2018, 1.02.2018)) and the treatment of animals was in full accordance with ethical standards laid down in respective Polish and EU regulations (Directive No. 86/609/EEC). For in vivo tests the compounds 3a–3j were prepared in 1% Tween 80 solution (POCH, Poland) and they were administered by the intraperitoneal route. Control mice received 1% Tween 80. Pentylenetetrazole (PTZ), pilocarpine hydrochloride and scopolamine butylbromide were provided by Sigma Aldrich (Poland). For the tests they were prepared in 0.9% saline (Polfa Kutno, Poland). PTZ and pilocarpine were administered 60 min after the test compound or vehicle. To assess anticonvulsant properties of the test compounds anticonvulsant screening was conducted. Four assays were used: PTZ, maximal electroshock seizure (MES), 6-Hz and pilocarpine tests. In these assays the dose of 100 mg/kg was chosen as a starting dose. If it turned out to be effective, a lower dose (30 mg/kg) was also tested. MES test was performed according to a method previously described (Sałat et al. [2005]). In this test vehicle-treated mice and drug-treated mice received a stimulus of 25 mA delivered by an electroshock generator (Hugo Sachs rodent shocker, Germany) to induce maximal seizures (tonic extension) of hind limbs. Electroconvulsions were produced with the use of auricular electrodes and the stimulus duration was 0.2 s. Tonic extension of the hind limbs was regarded as the endpoint for this procedure.

C. albicans = assay: Broth microdilution MIC/MFC, clinical isolate; type: cell-based; conditions: C. albicans clinical strain
From the text: (§1) In the study of antifungal activity of the compounds 3a–3j, 15 clinical strains of different species of yeasts from Candida species, namely C. albicans, C. dubliniensis C. famata, C. inconspicua, C. krusei, C. tropicalis, C. glabrata, C. lambica, C. kefyr, C. lusitaniae, C. parapsilosis, C. guilliermondii, C. lusitaniae, C. pulcherrima and C. sake were also used. These fungi were isolated by the author (from Department of Pharmaceutical Microbiology of Medical University in Lublin, Poland) from different clinical materials, e.g., from upper respiratory tract of hospitalized patients including cancer patients (i.e., with non-small cell lung cancer or hematological malignancies). Some patients were after pre-operative or post-operative chemotherapy (treated with etoposide or cis-platin given in doses according to the standard procedures), patients with chronic hepatitis C (undergoing peginterferon and ribavirin therapy or without antiviral therapy), patients with diabetes, elderly people, aged of 65 years old or older, staying in close population, such as a care centre and people staying outside the home care. The Ethical Committee of the Medical University of Lublin approved the study protocol (No. KE-0254/75/2011). The isolates were identified by standard diagnostic methods—biochemical microtest, e.g., API 20C AUX, ID 32C, API Candida (bioMérieux) on the basis of assimilation of various substrates. All the used microbial cultures were first subcultured on nutrient agar or Sabouraud agar for bacteria and fungi, respectively. The RPMI 1640 with MOPS (for fungi) were inoculated with the suspensions of fungal species. Microbial suspensions were prepared in sterile saline (0.85% NaCl) with an optical density of 0.5 McFarland standard scale (Wiegand et al. [2008]). Samples containing examined compounds were dissolved in dimethyl sulfoxide (DMSO). Furthermore, fungal suspensions were put onto Petri dishes with solid media containing 2 mg/ml of the tested compounds followed incubation under appropriate conditions. The inhibition of microbial growth was judged by comparison with a control culture prepared without any sample tested. Nystatin (Sigma) was used as a reference antifungal compound. Subsequently MIC minimal inhibitory concentration (MIC) of the compounds was examined by the microdilution broth method, using their two-fold dilutions in RPMI 1640 broth with MOPS prepared in 96-well polystyrene plates. Final concentrations of the compounds ranged from 1000 to 0.0038 µg/ml. Microbial suspensions were prepared in sterile saline with an optical density of 0.5 McFarland standard. Next fungal suspension was added per each well containing broth and various concentrations of the examined compounds. After incubation, the MIC was assessed spectrophotometric as the lowest concentration of the samples showing complete fungal growth inhibition. Appropriate DMSO, growth and sterile controls were carried out. The medium with no tested substances was used as a control (Wiegand et al. [2008]). The minimal fungicidal concentration (MFC) are defined as the lowest concentration of the compounds that is required to kill a particular fungal species. MFC was determined by removing the culture using for MIC determinations from each well and spotting onto appropriate agar medium. The plates were incubated. The lowest compounds concentration with no visible growth observed was assessed as a fungicidal concentration. All the experiments were repeated three times and representative data are presented.
(§2) The MFC/MIC ratios were calculated in order to determine fungicidal (MFC/MIC ≤ 4) or fungistatic (MFC/MIC > 4) effect of the tested compounds (O’Donnell et al. [2010]).

C. dubliniensis = assay: Broth microdilution MIC/MFC, clinical isolate; type: cell-based; conditions: C. dubliniensis clinical strain
From the text: as §1, §2

C. famata = assay: Broth microdilution MIC/MFC, clinical isolate; type: cell-based; conditions: C. famata clinical strain
From the text: as §1, §2

C. glabrata = assay: Broth microdilution MIC/MFC, clinical isolate; type: cell-based; conditions: C. glabrata clinical strain
From the text: as §1, §2

C. guilliermondii = assay: Broth microdilution MIC/MFC, clinical isolate; type: cell-based; conditions: C. guilliermondii clinical strain
From the text: as §1, §2

C. inconspicua = assay: Broth microdilution MIC/MFC, clinical isolate; type: cell-based; conditions: C. inconspicua clinical strain
From the text: as §1, §2

C. kefyr = assay: Broth microdilution MIC/MFC, clinical isolate; type: cell-based; conditions: C. kefyr clinical strain
From the text: as §1, §2

C. krusei = assay: Broth microdilution MIC/MFC, clinical isolate; type: cell-based; conditions: C. krusei clinical strain
From the text: as §1, §2

C. lambica = assay: Broth microdilution MIC/MFC, clinical isolate; type: cell-based; conditions: C. lambica clinical strain
From the text: as §1, §2

C. tropicalis = assay: Broth microdilution MIC/MFC, clinical isolate; type: cell-based; conditions: C. tropicalis clinical strain
From the text: as §1, §2

[2] = Candida albicans, read-out: MFC
[3] = Candida albicans, read-out: MIC
[4] = Candida dubliniensis, read-out: MFC
[5] = Candida dubliniensis, read-out: MIC
[6] = Debaryomyces hansenii, read-out: MFC
[7] = Debaryomyces hansenii, read-out: MIC
[8] = Meyerozyma guilliermondii, read-out: MFC
[9] = Meyerozyma guilliermondii, read-out: MIC
[10] = Pichia inconspicua, read-out: MFC
[11] = Pichia inconspicua, read-out: MIC
[12] = Pichia kudriavzevii, read-out: MFC
[13] = Pichia kudriavzevii, read-out: MIC
[14] = Candida tropicalis, read-out: MFC
[15] = Candida tropicalis, read-out: MIC

In the case of `FC(F)(F)c1ccc(-c2csc(N/N=C/C3CC3)n2)cc1` [Compound 3e, (E)-2-(2-(Cyclopropylmethylene)hydrazinyl)-4-(4-(trifluoromethyl)phenyl)thiazole], the “animals with reduced seizures” value ([1]; MES test, 100 mg/kg) is reported as 63%, the responders at 30 mg/kg ([1]; Mus musculus, MES test, 30 mg/kg ip, read-out: X/Y number of mice protected (X) per number of mice tested (Y)) is reported as 0% and the responders at 100 mg/kg ([1]; Mus musculus, MES test) is reported as 62.5%. For the same molecule, the “anticonvulsant activity in MES test” value ([1]; 30 mg/kg) was “not active”.
For `C[C@@H]1[C@H](O)[C@@H](C)/C=C/C=C/CC/C=C/C=C/C=C/C=C/C(O[C@H]2O[C@H](C)[C@@H](O)[C@H](N)[C@@H]2O)CC2O[C@](O)(CC(O)C(O)CCC(O)CC(O)CC(O)CC(=O)O[C@H]1C)CC(O)C2C(=O)O` (some centres unmarked) [Nystatin, reference compound], the MFC (C. albicans) was 0.24 µg/mL (≈ 0.259 µM), the MFC/MIC (C. albicans) was 1 and the MIC (C. albicans) was 0.24 µg/mL (≈ 0.259 µM). It also gave an MFC (C. dubliniensis) of 0.12 µg/mL (≈ 0.13 µM), an MFC/MIC (C. dubliniensis) of 1 and an MIC (C. dubliniensis) of 0.12 µg/mL (≈ 0.13 µM). The MFC (C. famata) was 0.12 µg/mL (≈ 0.13 µM), the MFC/MIC (C. famata) was 2 and the MIC (C. famata) was 0.06 µg/mL (≈ 0.0648 µM). It also gave an MFC (C. glabrata) of 0.48 µg/mL (≈ 0.518 µM), an MFC/MIC (C. glabrata) of 1 and an MIC (C. glabrata) of 0.48 µg/mL (≈ 0.518 µM). It also gave an MFC (C. guilliermondii) of 0.12 µg/mL (≈ 0.13 µM), an MFC/MIC (C. guilliermondii) of 2 and an MIC (C. guilliermondii) of 0.06 µg/mL (≈ 0.0648 µM). For the same molecule, the MFC (C. inconspicua) was 0.48 µg/mL (≈ 0.518 µM), the MFC/MIC (C. inconspicua) was 4 and the MIC (C. inconspicua) was 0.12 µg/mL (≈ 0.13 µM). The MFC (C. kefyr) was 0.24 µg/mL (≈ 0.259 µM), the MFC/MIC (C. kefyr) was 2 and the MIC (C. kefyr) was 0.12 µg/mL (≈ 0.13 µM). For the same molecule, the MFC (C. krusei) was 0.98 µg/mL (≈ 1.06 µM), the MFC/MIC (C. krusei) was 4 and the MIC (C. krusei) was 0.24 µg/mL (≈ 0.259 µM). For the same molecule, the MFC (C. lambica) was 0.98 µg/mL (≈ 1.06 µM), the MFC/MIC (C. lambica) was 2 and the MIC (C. lambica) was 0.48 µg/mL (≈ 0.518 µM). For the same molecule, the MFC (C. tropicalis) was 0.06 µg/mL (≈ 0.0648 µM), the MFC/MIC (C. tropicalis) was 4 and the MIC (C. tropicalis) was 0.015 µg/mL (≈ 0.0162 µM).
`Fc1ccc(-c2csc(N/N=C/C3CC3)n2)cc1` [Compound 3a, (E)-2-(2-(Cyclopropylmethylene)hydrazinyl)-4-(4-fluorophenyl)thiazole] gave an MFC (C. albicans; [2]) of 3.91 µg/mL (≈ 15 µM), an MIC (C. albicans; [3]) of 0.98 µg/mL (≈ 3.75 µM) and an MFC (C. dubliniensis; [4]) of 3.91 µg/mL (≈ 15 µM). The MIC (C. dubliniensis; [5]) was 1.95 µg/mL (≈ 7.46 µM), the MFC (C. famata; [6]) was 62.5 µg/mL (≈ 239 µM) and the MIC (C. famata; [7]) was 7.81 µg/mL (≈ 29.9 µM). For the same molecule, the MFC (C. guilliermondii; [8]) was 31.2 µg/mL (≈ 120 µM), the MIC (C. guilliermondii; [9]) was 1.95 µg/mL (≈ 7.46 µM) and the MFC (C. inconspicua; [10]) was 3.91 µg/mL (≈ 15 µM). The MIC (C. inconspicua; [11]) was 1.95 µg/mL (≈ 7.46 µM), the MFC (C. krusei; [12]) was 1.95 µg/mL (≈ 7.46 µM) and the MIC (C. krusei; [13]) was 0.98 µg/mL (≈ 3.75 µM). It also gave an MFC (C. tropicalis; [14]) of 1.95 µg/mL (≈ 7.46 µM), an MIC (C. tropicalis; [15]) of 0.98 µg/mL (≈ 3.75 µM) and a responders at 100 mg/kg ([1]; Mus musculus, MES test) of 37.5%.
Molecule `[N-]=[N+]=Nc1ccc(-c2csc(N/N=C/C3CC3)n2)cc1` [Compound 3i, (E)-4-(4-Azidophenyl)-2-(2-(cyclopropylmethylene)hydrazinyl)thiazole] has an MFC (C. albicans; [2]) of 15.6 µg/mL (≈ 54.9 µM), an MIC (C. albicans; [3]) of 0.48 µg/mL (≈ 1.69 µM) and an MFC (C. dubliniensis; [4]) of 0.12 µg/mL (≈ 0.422 µM). For the same molecule, the MIC (C. dubliniensis; [5]) was 0.015 µg/mL (≈ 0.0528 µM), the MFC (C. famata; [6]) was 7.81 µg/mL (≈ 27.5 µM) and the MIC (C. famata; [7]) was 1.95 µg/mL (≈ 6.86 µM). For the same molecule, the MFC (C. glabrata; Nakaseomyces glabratus, read-out: MFC) was > 1000 µg/mL, the MIC (C. glabrata; Nakaseomyces glabratus, read-out: MIC) was 31.2 µg/mL (≈ 110 µM) and the MFC (C. guilliermondii; [8]) was 15.6 µg/mL (≈ 54.9 µM). For the same molecule, the MIC (C. guilliermondii; [9]) was 0.98 µg/mL (≈ 3.45 µM), the MFC (C. inconspicua; [10]) was 0.98 µg/mL (≈ 3.45 µM) and the MIC (C. inconspicua; [11]) was 0.48 µg/mL (≈ 1.69 µM). For the same molecule, the MFC (C. kefyr; Kluyveromyces marxianus, read-out: MFC) was > 1000 µg/mL, the MIC (C. kefyr; Kluyveromyces marxianus, read-out: MIC) was 7.81 µg/mL (≈ 27.5 µM) and the MFC (C. krusei; [12]) was 7.81 µg/mL (≈ 27.5 µM). The MIC (C. krusei; [13]) was 0.98 µg/mL (≈ 3.45 µM), the MFC (C. tropicalis; [14]) was 1.95 µg/mL (≈ 6.86 µM) and the MIC (C. tropicalis; [15]) was 0.24 µg/mL (≈ 0.844 µM). It also gave a responders at 100 mg/kg ([1]; Mus musculus, MES test) of 37.5%.
